Holding throughout (assay type): cell-based
The target of experiment [1] is T1, human adrenergic receptor (ADR) β2 (Homo sapiens, UniProt P07550).
T1 construct: host or cells: rat chem-1 cells
The experiment is described as follows: ADRβ2 activation, Ca2+ influx (Fluo-8) in overexpressing chem-1 cells.

Experiment [2] has as its target T2, human adrenergic receptor (ADR) α2A (Homo sapiens, UniProt P08913).
T2 construct: host or cells: rat chem-1 cells
T2 sequence (P08913 1-465): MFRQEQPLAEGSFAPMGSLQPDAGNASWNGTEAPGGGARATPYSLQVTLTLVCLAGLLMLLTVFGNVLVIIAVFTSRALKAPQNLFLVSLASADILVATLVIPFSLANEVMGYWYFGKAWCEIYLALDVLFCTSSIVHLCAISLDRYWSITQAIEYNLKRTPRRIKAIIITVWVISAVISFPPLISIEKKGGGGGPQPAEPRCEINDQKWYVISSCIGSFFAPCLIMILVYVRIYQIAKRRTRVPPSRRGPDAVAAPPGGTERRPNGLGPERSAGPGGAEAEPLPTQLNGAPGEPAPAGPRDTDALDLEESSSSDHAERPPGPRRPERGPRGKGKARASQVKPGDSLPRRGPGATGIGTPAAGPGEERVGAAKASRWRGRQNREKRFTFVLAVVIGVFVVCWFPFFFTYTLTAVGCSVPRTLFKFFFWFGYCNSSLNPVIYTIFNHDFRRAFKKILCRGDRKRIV
Nature of the experiment: ADRα2A activation, Ca2+ influx (Fluo-8) in overexpressing chem-1 cells.

For experiment [3], the target named is T3, human adrenergic receptor (ADR) α1A (Homo sapiens, UniProt P35348).
T3 construct: host or cells: rat chem-1 cells
T3 sequence (P35348 1-466): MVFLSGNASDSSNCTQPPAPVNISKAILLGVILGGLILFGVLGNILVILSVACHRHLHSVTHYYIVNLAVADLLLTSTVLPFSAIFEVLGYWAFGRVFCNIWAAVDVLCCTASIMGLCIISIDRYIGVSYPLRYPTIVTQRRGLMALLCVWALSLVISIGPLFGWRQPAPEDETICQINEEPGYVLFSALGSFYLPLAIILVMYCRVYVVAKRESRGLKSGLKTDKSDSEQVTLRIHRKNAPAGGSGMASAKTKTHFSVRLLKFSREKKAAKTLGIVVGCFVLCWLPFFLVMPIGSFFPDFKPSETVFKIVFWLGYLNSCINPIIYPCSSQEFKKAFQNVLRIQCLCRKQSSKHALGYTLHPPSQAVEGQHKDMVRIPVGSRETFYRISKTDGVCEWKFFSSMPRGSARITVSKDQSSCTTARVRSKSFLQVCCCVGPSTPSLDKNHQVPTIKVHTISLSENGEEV
The experiment is described as follows: ADRα1A activation, Ca2+ influx (Fluo-8) in overexpressing chem-1 cells. As to conditions: Chem-1.

The target in experiment [4] is T4, human adrenergic receptor (ADR) β1 (Homo sapiens, UniProt P08588).
T4 construct: host or cells: rat chem-1 cells
Nature of the experiment: ADRβ1 activation, Ca2+ influx (Fluo-8) in overexpressing chem-1 cells. As to conditions: Chem-1, read-out: ADRβ1 Emax. An excerpt: (§1) Cells overexpressing human ADRs α1A, α1B, α1D, α2A, α2B, β1 and β2 (Eurofins Discovery Services, St. Charles, MO, USA, product numbers: HTS087RTA, HTS158RTA, HTS216RTA, HTS096RTA, HTS157LRTA, HTS104RTA and HTS073RTA, respectively) were used to study the potency (EC50) and efficacy (Emax) of the selected compounds for these receptors by quantifying Ca^2+ influx upon receptor activation. ADRα1A, α1B, α1D, α2A, β1 and β2 were overexpressed in rat chem-1 cells. ADRα2B was overexpressed in HEK293 cells. The cells were seeded (10,000–50,000 cells/well) in a black 96-well plate (VWR International, Leuven, Belgium) and incubated at 37 °C and 5% CO2 for 24 h. After 24 h, the cells were washed with Hank’s balanced salt solution (HBSS) (Gibco, Paisley, UK) containing 0.35 g/L sodium bicarbonate and incubated with 5 µg/mL Fluo-8 AM in HBSS (pH 7.4) supplemented with 2.5 mM probenecid for 1 h. […] Peak tops of the obtained fluorescence response–time curves were corrected for baseline fluorescence and used to construct concentration–response relationships.
(§2) Concentration–response relationships for TAAR1 activation are presented as percentages of the maximal intracellular cAMP level induced by full the TAAR1 agonist phenethylamine and corrected for baseline cAMP accumulation. […] Experiments were run in duplicate in 7–9 independent experiments for ADR and were run in 3–5 independent experiments for TAAR1.

Experiment [5] deals with T5, human adrenergic receptor (ADR) α1B (Homo sapiens, UniProt P35368).
T5 construct: host or cells: rat chem-1 cells
T5 sequence (P35368 1-520): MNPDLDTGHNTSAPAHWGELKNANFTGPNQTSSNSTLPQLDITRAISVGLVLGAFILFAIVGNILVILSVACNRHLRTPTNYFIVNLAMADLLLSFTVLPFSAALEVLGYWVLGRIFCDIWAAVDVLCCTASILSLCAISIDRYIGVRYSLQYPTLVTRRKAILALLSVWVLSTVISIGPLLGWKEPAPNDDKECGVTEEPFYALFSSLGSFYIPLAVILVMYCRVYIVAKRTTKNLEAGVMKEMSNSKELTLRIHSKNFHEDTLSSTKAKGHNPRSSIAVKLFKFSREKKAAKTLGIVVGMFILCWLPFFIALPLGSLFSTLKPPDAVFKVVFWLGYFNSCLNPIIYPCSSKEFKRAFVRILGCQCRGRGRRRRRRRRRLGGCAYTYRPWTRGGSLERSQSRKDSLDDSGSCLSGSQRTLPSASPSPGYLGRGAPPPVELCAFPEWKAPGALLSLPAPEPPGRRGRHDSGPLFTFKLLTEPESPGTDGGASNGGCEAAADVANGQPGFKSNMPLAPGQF
Nature of the experiment: ADRα1B activation, Ca2+ influx (Fluo-8) in overexpressing chem-1 cells.
From the text: as §1, §2

Experiment [6] concerns the target T6, human adrenergic receptor (ADR) α1D (Homo sapiens, UniProt P25100).
T6 construct: host or cells: rat chem-1 cells
T6 sequence (P25100 1-572): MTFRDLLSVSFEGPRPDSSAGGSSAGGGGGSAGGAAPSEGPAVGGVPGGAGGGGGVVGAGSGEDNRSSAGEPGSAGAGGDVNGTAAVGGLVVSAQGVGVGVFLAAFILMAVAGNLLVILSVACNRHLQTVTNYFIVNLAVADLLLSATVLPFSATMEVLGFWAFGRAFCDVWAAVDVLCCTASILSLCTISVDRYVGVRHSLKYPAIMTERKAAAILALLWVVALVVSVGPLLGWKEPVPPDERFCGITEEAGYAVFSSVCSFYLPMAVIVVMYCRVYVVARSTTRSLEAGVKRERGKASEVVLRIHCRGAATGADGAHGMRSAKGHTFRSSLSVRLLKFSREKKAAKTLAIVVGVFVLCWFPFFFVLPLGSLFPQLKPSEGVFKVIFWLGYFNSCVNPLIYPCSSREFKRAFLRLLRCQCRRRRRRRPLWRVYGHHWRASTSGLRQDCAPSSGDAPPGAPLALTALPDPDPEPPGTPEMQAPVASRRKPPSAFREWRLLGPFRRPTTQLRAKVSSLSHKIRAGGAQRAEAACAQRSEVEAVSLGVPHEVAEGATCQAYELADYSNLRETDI
Nature of the experiment: ADRα1D activation, Ca2+ influx (Fluo-8) in overexpressing chem-1 cells.

The mark [7] stands for this setting: Ca2+ response, chem-1 cells, average (95% confidence interval), 7–9 experiments.
[8] abbreviates: % of maximal signal obtained by adrenaline, average (95% CI).

A value given as a limit tells only on which side of the number the result lay.

T4 sequence (P08588 whole entry): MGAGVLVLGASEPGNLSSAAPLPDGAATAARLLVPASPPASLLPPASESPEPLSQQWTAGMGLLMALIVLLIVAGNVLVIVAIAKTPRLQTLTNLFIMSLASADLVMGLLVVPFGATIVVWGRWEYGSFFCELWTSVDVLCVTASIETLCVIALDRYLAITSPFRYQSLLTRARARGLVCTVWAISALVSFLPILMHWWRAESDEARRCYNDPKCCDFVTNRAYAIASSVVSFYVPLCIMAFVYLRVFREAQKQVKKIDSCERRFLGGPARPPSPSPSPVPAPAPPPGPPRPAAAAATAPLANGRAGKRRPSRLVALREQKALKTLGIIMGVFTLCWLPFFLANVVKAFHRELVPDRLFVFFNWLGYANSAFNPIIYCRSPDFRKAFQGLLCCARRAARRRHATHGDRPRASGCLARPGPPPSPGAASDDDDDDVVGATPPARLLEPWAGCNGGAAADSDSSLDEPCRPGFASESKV

Regarding `CNC[C@H](O)c1ccc(O)c(O)c1` [Adrenaline, adrenaline, reference compound], the Emax worked out at 104% in experiment [1] (Chem-1); 105% in experiment [2] (Chem-1, % of maximal signal obtained by adrenaline, average (95% CI)); 98% in experiment [3]; 99% in experiment [4]; 99% in experiment [5] (Chem-1, read-out: ADRα1B Emax); 99% in experiment [6] (Chem-1). Moreover, in experiment [6] (setting [7]), it took 0.0017 µM to reach a half-maximal effect (EC50).
As for Methyltyramine, the “ADRβ2 Emax” value in experiment [1] (setting [8]) is recorded as “-”. Besides, the EC50 in experiment [1] (setting [7]) is over 300 µM; in experiment [2] (setting [7]) it was over 300 µM; in experiment [5] (Ca2+ response, chem-1 cells, average (95% confidence interval), 7–9 experiments, read-out: ADRα1B EC50), over 300 µM. In addition, the “ADRα1B Emax” value in experiment [5] (setting [8]) is given as “-”. Moreover, the “ADRα1D Emax” value in experiment [6] (setting [8]) is listed as “-”.

One may read the Emax as the greatest response seen or fitted, relative to the assay's reference. One may read the EC50 as the concentration at which the effect is half-maximal.
